Measured values as given in EP1633374B1, “COMPOSITION CONSISTING OF ALKANE DICARBOXYLIC ACIDS AND A PHARMACEUTICALLY ACTIVE INGREDIENT” (Intendis GmbH, priority 2003, dated 2004).
Entries after “also recorded” stand apart in the source; their conditions may differ.

Tested on: durch Crotonöl entzündete Maushaut
Experiment: Croton oil-induced inflammation of the mouse ear (irritant contact dermatitis model), leukocyte infiltration of the skin
Format: in vivo, Maus
Conditions: for Inhibition [%] der Hautinfiltration * von Granulozyten & Monozyten (Myelo-Peroxidaseaktivität) / Inhibition [%] der Hautinfiltration * von Neutrophilen Elastaseaktivität: Crotonöl challenge, mouse ear skin, topical treatment in Ethanol/Isopropylmyristat, inhibition vs Crotonöl + Vehikel (0 %), 100 % = Vehikel/Vehikel, significance given (n.s. or p<0.05); for therapeutische Effekte im Vergleich zum Vehikel: inflammation model, in Ethanol/Isopropylmyristat, Peroxidase- and Elastase-Aktivität in der Haut, result in words
Description: Die Induktion einer entzündlichen Reaktion (irritative Kontaktdermatitis) ist ein weit verbreitetes Modell zur pharmakologischen Evaluierung des anti - inflammatorischen Potentials von topisch oder systemisch applizierten Testsubstanzen. (Trancik and Lowe (1985) Evaluation of topical nonsteroidal anti - inflammatory agents, Models in Dermatology, H. Maibach and N.J. Lowe, Basel Karger: 35 - 42) Es hat sich unter anderem bei der Testung von nicht - steroidalen Antiphlogistika sowie bei Glukokortikosteroiden bewährt und gilt als der am besten reproduzierbare in vivo Testversuch für die Evaluierung topischer anti - inflammatorischer Substanzen (Lorenzetti (1975) Animal to Clinical Correlation of Topical Anti - Inflammatory Efficacy, Animal models in dermatology. H. Maibach, Basel Karger: 212 - 224)
Die Induktion einer entzündlichen Reaktion (irritative Kontaktdermatitis) ist ein weit verbreitetes Modell zur pharmakologischen Evaluierung des anti - inflammatorischen Potentials von topisch oder systemisch applizierten Testsubstanzen (Trancik and Lowe (1985) Evaluation of topical nonsteroidal anti - inflammatory agents, Models in Dermatology, H. Maibach and N.J. Lowe. Basel, Karger: 35 - 42). Es hat sich u.a. bei der Testung von nicht - steroidalen Antiphlogistika sowie bei Glukokortikosteroiden bewährt und gilt als der am besten reproduzierbare in vivo Versuch für die Evaluierung topischer anti - inflammatorischer Substanzen (Lorenzetti (1975) Animal to Clinical correlation of Topical Anti - inflammatory Efficacy. Animal models in dermatology. H. Maibach. Basel Karger: 212 - 225).
Die Applikation des Phorbolesters Crotonöl auf Mäuseohren führt zu einer akuten, entzündlichen Reaktion mit Ödem und Einwanderung von vorwiegend polymorphkernigen Granulozyten, die binnen 24h ihr Maximum erreicht. Testsubstanzen können hierbei entweder präventiv (d.h. vor Applikation des entzündlichen Reizes) oder simultan mit Crotonöl appliziert werden. Die Crotonöl - induzierte Entzündung am Mäuseohr ist nicht nur ein Modell der irritativen und/oder allergischen Kontaktdermatitis, sondern auch anderer Hauterkrankungen, die mit einer starken Entzündung und Einwanderung von Granulozyten verbunden sind. Hierzu zählen die Psoriasis, atopische Dermatitis, Akne vulgaris und das entzündliche Stadium der Rosacea.
Erstaunlicher Weise wurde gefunden, dass eine Kombinationstherapie von Metronidazol (0.75%) und Azelainsäure (20%) in Ethanol/Isopropylmyristat im Vergleich zum Vehikel signifikant therapeutisch effektiv waren, wohingegen die beiden Einzelsubstanzen Metronidazol (0.75%) bzw. […] Die Wirksamkeit beinhaltete u.a. die Einwanderung von Leukozyten gemessen als Peroxidase-Aktivität in der Haut sowie die Einwanderung von neutrophilen Granulozyten gemessen als Elastase-Aktivität in der Haut (Tabelle 1).
Die Leukozyteninfiltration in die durch Crotonöl entzündete Maushaut wird durch die kombinierte Behandlung mit Azelainsäure und Metronidazol im Vergleich zu Vehikelbehandlung signifikant inhibiert, wohingegen die einzelnen Wirkstoffe nicht so effektiv waren.

## C[C@H]1C[C@@H]2[C@H]([C@@H](O)C[C@@]3(C)[C@H]2CC[C@]3(O)C(=O)CO)[C@@]2(C)C=CC(=O)C=C12 [Methylprednisolon]
  Inhibition [%] der Hautinfiltration * von Granulozyten & Monozyten (Myelo-Peroxidaseaktivität): 90 (p<0.05) ^* %
  Inhibition [%] der Hautinfiltration * von Neutrophilen Elastaseaktivität: 95 (p<0.05) ^* %

## O=C(O)CCCCCCCC(=O)O [Azelainsäure (20%), Azelainsäure]
  Inhibition [%] der Hautinfiltration * von Granulozyten & Monozyten (Myelo-Peroxidaseaktivität): 21 (n.s.) * %
  Inhibition [%] der Hautinfiltration * von Neutrophilen Elastaseaktivität: 11 (n.s.) * %
  therapeutische Effekte im Vergleich zum Vehikel: keine so hohen, therapeutischen Effekte; also recorded: keine so hohe, therapeutische Effekte

## Cc1ncc([N+](=O)[O-])n1CCO [Metronidazol (0.75%), 1-(2-hydroxyethyl)-2-methyl-5-nitroimidazol]
  Inhibition [%] der Hautinfiltration * von Granulozyten & Monozyten (Myelo-Peroxidaseaktivität): 9 (n.s.) * %
  Inhibition [%] der Hautinfiltration * von Neutrophilen Elastaseaktivität: 18 (n.s.) * %
  therapeutische Effekte im Vergleich zum Vehikel: keine so hohen, therapeutischen Effekte; also recorded: keine so hohe, therapeutische Effekte
